These results are taken from patent US8148117B2, “Microorganism and process for the preparation of L-methionine” (Evonik Degussa GmbH, priority 2005, dated 2012).

Where two headings read alike, the source gives them in different places.

Data set [1] deals with MetC (Bordetella avium, UniProt Q07703). Conditions: read-out: MetC Km; B. avium MetC; Gentry-Weeks et al. 1993; cited from earlier work.
The target of data set [2] is MetC (Salmonella typhimurium, UniProt P18949). Conditions: read-out: MetC Km; S. thyphimurium MetC; Dwivedi et al. 1982; cited from earlier work.
Chain of MetC (Salmonella typhimurium, UniProt P18949) (P18949 whole entry): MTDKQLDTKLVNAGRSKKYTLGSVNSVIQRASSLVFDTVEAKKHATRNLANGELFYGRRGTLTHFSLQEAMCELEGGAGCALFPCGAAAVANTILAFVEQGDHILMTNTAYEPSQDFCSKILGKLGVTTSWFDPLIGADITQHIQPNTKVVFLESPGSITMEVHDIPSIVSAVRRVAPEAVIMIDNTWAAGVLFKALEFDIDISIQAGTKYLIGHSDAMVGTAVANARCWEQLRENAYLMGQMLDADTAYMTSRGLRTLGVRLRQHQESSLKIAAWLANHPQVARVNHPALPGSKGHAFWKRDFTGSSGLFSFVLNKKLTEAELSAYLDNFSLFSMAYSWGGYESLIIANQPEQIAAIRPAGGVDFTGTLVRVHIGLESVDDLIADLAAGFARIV
Data set [3] concerns the target T1, MetC (Corynebacterium glutamicum, UniProt Q93QC6).
T1 construct: His-Tag (N); made in house; host or cells: Escherichia coli
T1 sequence (Q93QC6 1-368): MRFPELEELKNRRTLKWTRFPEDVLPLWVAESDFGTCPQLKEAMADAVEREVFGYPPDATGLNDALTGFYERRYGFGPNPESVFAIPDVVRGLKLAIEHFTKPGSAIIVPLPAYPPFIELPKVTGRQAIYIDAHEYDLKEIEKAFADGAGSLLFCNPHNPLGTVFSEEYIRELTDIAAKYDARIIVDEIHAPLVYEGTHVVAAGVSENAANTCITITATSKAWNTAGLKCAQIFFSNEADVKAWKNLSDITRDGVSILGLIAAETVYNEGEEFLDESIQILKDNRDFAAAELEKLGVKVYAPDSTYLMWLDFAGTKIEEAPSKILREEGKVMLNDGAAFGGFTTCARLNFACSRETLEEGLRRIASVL
It counts as biochemical. To be noted: for Cleavage by MetC: MetC added to MetB assay products after MetB removal, HPLC and photometric SH-group assay. How it is done: (§1) Overexpression and purification of enzymes. MetB and MetC of C. glutamicum were cloned in the vector pQE30 (Qiagen). Expression with this vector comprises the addition of a His-Tag to the N-terminus of the expressed protein. Escherichia coli was transformed with the plasmid and selected by ampicillin resistance (100 μg/mL). Transformed E. coli was cultivated (100 μg/mL ampicillin, 37° C., 230 rpm) on terrific broth (Losen et al., Biotechnol Prog 2004, 204, 1062-8) and induced at an optical density of 1 (600 nm) by addition of 1 mM isopropyl thiogalactoside (final concentration). The cells were harvested by centrifugation (4225 g, 15 min, 2° C.) after 16 h of induced growth, washed and resuspended in phosphate buffer (100 mM, 100 μM pyridoxal phosphate, 1 mg/mL DNAse 1, pH 7.4 at 4° C.) and extracted by sonication (5×15 sec, 20 micron). The crude extracts were separated from cell debris by centrifugation (30 min, 2° C., and 20000 g). […] After the protein was applied to the column, it was washed with 10 vol. of 0.02 M sodium phosphate buffer. Elution was carried out with a linear gradient with 0.02 M sodium phosphate buffer (pH 7.4) containing 0.5 M NaCl and 0.5 M imidazol. The fractions containing the protein were checked for purity with SDS-PAGE and then pooled together. Imidazole was separated from the proteins by ultrafiltration.
In vitro assays of MetB and MetC. Activity of MetB and MetC was followed photometrically (Helios α, Thermo Electronic, Dreieich, Germany). Enzyme activities were measured by increase or decrease of free SH-groups using Ellman's reagent (Extinction at 412 nm) (Ellman and Lysko, 1979). The assay mixtures contained 1.25 mM cysteine or homocysteine and 3 mM O-acetyl homoserine for MetB-assays and 1.25 mM cystathionine or about 1.25 mM homolanthionine for MetC-assays. Homolanthionine was not commercially available. The MetC-assay was therefore carried out using the products of the MetB-assay. MetB was removed by ultrafiltration. Thus, the homolanthionine concentration could not be adjusted in the assays. […]

Data set [4] has as its target MetC (Escherichia coli, UniProt P06721). To be noted: Dwivedi et al. 1982, cited from earlier work.
Data set [5] concerns the target T2, MetB (Corynebacterium glutamicum, UniProt Q79VD9).
T2 sequence (Q79VD9 1-386): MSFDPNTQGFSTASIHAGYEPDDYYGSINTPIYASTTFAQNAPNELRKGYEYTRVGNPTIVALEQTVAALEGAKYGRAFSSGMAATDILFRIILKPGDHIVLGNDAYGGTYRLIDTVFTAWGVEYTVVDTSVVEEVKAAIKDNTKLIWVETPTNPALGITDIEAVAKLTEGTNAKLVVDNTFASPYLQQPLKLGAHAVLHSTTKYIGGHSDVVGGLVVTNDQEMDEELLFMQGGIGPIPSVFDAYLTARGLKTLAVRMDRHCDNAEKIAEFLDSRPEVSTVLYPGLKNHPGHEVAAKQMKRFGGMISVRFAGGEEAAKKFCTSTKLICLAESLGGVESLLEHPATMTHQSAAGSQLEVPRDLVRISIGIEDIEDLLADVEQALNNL
The data set is described as follows: In vitro assay of MetB, Km from Lineweaver-Burk plots. The data set is classed as biochemical. Conditions: C. glutamicum MetB, with O-acetyl homoserine, this study. On the procedure:
as §1, with “The fractions containing the protein were checked for purity with SDS-PAGE and then pooled together. Imidazole was separated from the proteins by ultrafiltration.” left out
In vitro assays of MetB and MetC. […] Enzyme activities were measured by increase or decrease of free SH-groups using Ellman's reagent (Extinction at 412 nm) (Ellman and Lysko, 1979). […]

Data set [6] has as its target MetB (Escherichia coli, UniProt P00935). To be noted: E. coli MetB; Holbrook et al. 1990; cited from earlier work.
The subject of data set [7] is MetB. To be noted: read-out: MetB Km; Spinach MetB; Ravanel et al. 1995; cited from earlier work.
Substrate in data set [8]: N[C@@H](CCS)C(=O)O
Kind of data set: purified protein, by the assay type. To be noted: other: C. glutamicum MetB, with O-acetyl homoserine, this study; 37.0 °C.

Chain of MetC (Escherichia coli, UniProt P06721) (P06721 2-395): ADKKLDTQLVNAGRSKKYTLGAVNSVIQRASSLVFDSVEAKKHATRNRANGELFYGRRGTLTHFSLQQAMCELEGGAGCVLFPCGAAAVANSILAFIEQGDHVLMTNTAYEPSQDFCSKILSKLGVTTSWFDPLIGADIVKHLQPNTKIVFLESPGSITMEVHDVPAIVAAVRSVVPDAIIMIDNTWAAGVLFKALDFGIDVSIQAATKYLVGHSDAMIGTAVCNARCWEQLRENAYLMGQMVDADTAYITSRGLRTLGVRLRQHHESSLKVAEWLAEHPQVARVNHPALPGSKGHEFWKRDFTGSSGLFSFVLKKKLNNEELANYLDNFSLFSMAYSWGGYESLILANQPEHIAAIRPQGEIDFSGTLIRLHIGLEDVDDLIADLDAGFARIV
Chain of MetB (Escherichia coli, UniProt P00935) (P00935 whole entry): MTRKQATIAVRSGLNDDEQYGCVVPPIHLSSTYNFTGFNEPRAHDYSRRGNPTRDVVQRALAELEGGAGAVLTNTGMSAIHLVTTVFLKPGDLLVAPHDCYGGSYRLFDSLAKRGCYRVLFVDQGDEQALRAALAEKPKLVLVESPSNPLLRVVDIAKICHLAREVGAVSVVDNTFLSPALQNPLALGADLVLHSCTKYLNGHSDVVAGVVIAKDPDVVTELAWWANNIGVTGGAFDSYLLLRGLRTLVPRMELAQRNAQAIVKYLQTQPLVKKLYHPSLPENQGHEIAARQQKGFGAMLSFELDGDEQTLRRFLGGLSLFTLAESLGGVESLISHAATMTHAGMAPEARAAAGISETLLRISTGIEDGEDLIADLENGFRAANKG
Chain of MetC (Bordetella avium, UniProt Q07703) (Q07703 whole entry): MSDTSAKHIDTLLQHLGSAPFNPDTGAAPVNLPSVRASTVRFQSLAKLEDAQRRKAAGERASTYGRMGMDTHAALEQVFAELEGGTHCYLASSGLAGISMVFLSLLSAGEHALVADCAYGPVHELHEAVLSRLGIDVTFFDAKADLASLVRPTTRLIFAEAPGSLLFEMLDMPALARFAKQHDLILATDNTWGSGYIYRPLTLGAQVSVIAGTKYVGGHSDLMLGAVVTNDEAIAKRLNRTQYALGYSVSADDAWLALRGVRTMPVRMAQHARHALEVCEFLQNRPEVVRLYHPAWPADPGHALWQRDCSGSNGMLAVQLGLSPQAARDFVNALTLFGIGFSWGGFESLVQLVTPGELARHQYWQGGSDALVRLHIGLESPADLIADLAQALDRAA

In the case of `N[C@@H](CCSC[C@H](N)C(=O)O)C(=O)O` [L-cystathionine], the Km in data set [1] was 70 µM; in data set [2], 220 µM; in data set [3] (C. glutamicum MetC, this study) it was 107 µM; in data set [4] (E. coli MetC), 40 µM. Moreover, the “Cleavage by MetC” value in data set [3] was “complete cleavage”.

`N[C@@H](CS)C(=O)O` [L-cysteine]: the values for the Km in data set [5], in data set [6] and in data set [7] were 258 µM, 50 µM and 180 µM, respectively.

With `N[C@@H](CCSCC[C@H](N)C(=O)O)C(=O)O` [L-homolanthionine, S-[(3S)-3-amino-3-carboxypropyl]-L-homocysteine], in data set [3], the “Cleavage by MetC” value is “only poorly cleaved”. Moreover, the Km was 4540 µM in data set [4] (E. coli MetC) and 4500 µM in data set [4] (E. coli cystathionase).

B1: MetB (Corynebacterium glutamicum ATCC 13032) (protein)
chain: T2 sequence (Q79VD9 1-386)
Turning to B1, the Km in data set [8] was 541 µM.

As a reminder, the Km is the concentration of substrate that gives half-maximal velocity.
